# pIC50: −log10 of the molar value.
# Biological target: human recombinant, purified wild type His-B-Raf protein kinase (Homo sapiens, UniProt P15056)
# Assay: B-Raf In Vitro ELISA Assay
# Assay type: biochemical
# Details: phosphorylation of MEK1; 2.5 nM B-Raf, 0.15 μM MEK1, 10 μM ATP; 1 hour preincubation at 25° C.
# Protocol: B-Raf In Vitro ELISA Assay
# Activity of human recombinant, purified wild type His-B-Raf protein kinase was determined in vitro using an enzyme-linked immunosorbent assay (ELISA) assay format, which measures phosphorylation of the B-Raf substrate, human recombinant, purified His-derived (detagged) MEK1. The reaction utilized 2.5 nM B-Raf, 0.15 μM MEK1 and 10 μM adenosine triphosphate (ATP) in 40 mM N-(2-hydroxyethyl)piperazine-N′-(2-ethanesulfonic acid hemisodium salt (HEPES), 5 mM 1,4-dithio-DL-threitol (DTT), 10 mM MgCl2, 1 mM ethylenediaminetetraacetic acid (EDTA) and 0.2 M NaCl (1×HEPES buffer), with or without compound at various concentrations, in a total reaction volume of 25 μl in 384 well plates. B-Raf and compound were preincubated in 1×HEPES buffer for 1 hour at 25° C. Reactions were initiated with addition of MEK1 and ATP in 1×HEPES buffer and incubated at 25° C. for 50 minutes and reactions stopped by addition of 10 μl 175 mM EDTA (final concentration 50 mM) in 1×HEPES buffer. 5 μl of the assay mix was then diluted 1:20 into 50 mM EDTA in 1×HEPES buffer, transferred to 384 well black high protein binding plates and incubated overnight at 4° C. Plates were washed in tris buffered saline containing 0.1% Tween20 (TBST), blocked with 50 μl Superblock (Pierce) for 1 hour at 25° C., washed in TBST, incubated with 50 μl rabbit polyclonal anti-phospho-MEK antibody (Cell Signaling) diluted 1:1000 in TBS for 2 hours at 25° C., washed with TBST, incubated with 50 μl goat anti-rabbit horseradish peroxidase-linked antibody (Cell Signaling) diluted 1:2000 in TBS for 1 hour at 25° C. and washed with TBST. 50 μl of fluorogenic peroxidase substrate (Quantablu—Pierce) was added and following incubation for 45-60 minutes, 50 ul QuantabluSTOP (Pierce) was added. Blue fluorescent product was detected at excitation 325 and emission 420 using a TECAN Ultra plate reader. Data was graphed and IC50s calculated using Excel Fit (Microsoft).
# human recombinant, purified wild type His-B-Raf protein kinase, sequence (P15056 whole entry): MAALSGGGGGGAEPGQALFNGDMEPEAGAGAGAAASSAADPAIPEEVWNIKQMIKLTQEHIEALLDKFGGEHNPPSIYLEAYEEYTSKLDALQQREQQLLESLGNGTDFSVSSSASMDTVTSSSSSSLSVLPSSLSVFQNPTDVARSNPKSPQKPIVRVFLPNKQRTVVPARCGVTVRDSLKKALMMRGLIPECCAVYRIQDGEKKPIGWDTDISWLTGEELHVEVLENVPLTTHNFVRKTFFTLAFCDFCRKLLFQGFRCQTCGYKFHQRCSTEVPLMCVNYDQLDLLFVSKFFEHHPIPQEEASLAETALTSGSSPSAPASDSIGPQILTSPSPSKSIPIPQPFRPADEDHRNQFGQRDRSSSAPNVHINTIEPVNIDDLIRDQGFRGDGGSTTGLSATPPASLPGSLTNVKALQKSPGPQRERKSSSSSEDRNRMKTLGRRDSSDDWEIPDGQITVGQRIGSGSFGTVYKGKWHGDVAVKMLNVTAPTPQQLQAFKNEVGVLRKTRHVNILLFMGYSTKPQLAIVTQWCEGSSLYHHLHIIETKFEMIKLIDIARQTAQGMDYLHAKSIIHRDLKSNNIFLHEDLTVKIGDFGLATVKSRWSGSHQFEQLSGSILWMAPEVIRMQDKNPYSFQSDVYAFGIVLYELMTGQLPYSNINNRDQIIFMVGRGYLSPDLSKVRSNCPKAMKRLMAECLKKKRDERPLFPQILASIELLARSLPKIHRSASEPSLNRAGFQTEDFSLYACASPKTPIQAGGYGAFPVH
row,pIC50,Compound
1,6.27,"Cc1ccc(NC(=O)c2cccc(C(F)(F)F)c2)cc1-n1cnc2ccc(NCCCN(C)C)cc2c1=O [Example 9, N-{3-[6-(3-Dimethylaminopropylamino)-4-oxo-4H-quinazolin-3-yl]-4-methylphenyl}-3-trifluoromethylbenzamide]"
2,5.49,"Cc1ccc(NC(=O)c2cccc(C(F)(F)F)c2)cc1-n1c(C)nc2ccc(N3CCOCC3)cc2c1=O [Example 14, N-[4-Methyl-3-(2-methyl-6-morpholin-4-yl-4-oxo-4H-quinazolin-3-yl)phenyl]-3-trifluoromethylbenzamide]"
3,6.29,"Cc1ccc(NC(=O)c2cccc(C(F)(F)F)c2)cc1-n1cnc2ccc(OCCN3CCOCC3)cc2c1=O [Example 22, N-{4-Methyl-3-[6-(2-morpholinoethoxy)-4-oxo-4H-quinazolin-3-yl]phenyl}-3-trifluoromethylbenzamide]"

# — patent US20080275022A1, “Substituted Quinazolones as Anti-Cancer Agents” (AstraZeneca AB, priority 2004, published 2008)
